“Also recorded” adds a separate entry of the source.
What was measured:
2019-nCoV (COVID-19) = assay: Inhibitory effect against 2019-nCoV (COVID-19) viruses in Huh 7 cell model, viral RNA by qRT-PCR; type: cell-based; conditions: for SI: CC50/EC50, Huh 7 cells; for EC50: viral RNA copies in supernatant, 48 h
Procedure: The antiviral activity assay was performed on a Huh 7 cell model. Three replicate wells were set for each assay and the assay was repeated three times in total.
1) In each well of a 24-well cell culture plate, 5×10^4 Huh 7 cells were inoculated. Under the culture conditions of 37° C. and 5% CO2, when the confluence reached 60%, 200 μL of 2019-nCoV (COVID-19) virus solution diluted with a DMEM medium containing 2% FBS were added to each well respectively according to the multiplicity of infection MOI of 0.005. After adsorption for 1 h in a 5% CO2 incubator at 37° C., the virus solution was discarded. The positive control drug and the Azvudine amine phosphate prodrug CL-236 were subjected to 2-fold dilution with a DMEM medium containing 2% FBS from the maximum non-toxic concentration, and added to the cell plate at 500 μL/well. Meanwhile, a control group (drug-free group) was set and the supernatant virus solution was collected at 48 h after infection.
2) RNA quantification of collected viruses by real-time RT-PCR (qRT-PCR):
From the collected supernatant virus solutions, 140 μL were measured separately, and subjected to RNA extraction according to the instruction of the QIAamp viral RNA mini kit. The qRT-PCR detection was carried out using the One Step TB Green PrimeScript PLUS RT-PCR Kit (Perfect Real Time), and the primers were RBD-qF1: 5′-[…]-3′ (SEQ. ID. NO. 1); and RBD-qR1:5′-[…]-3′(SEQ. ID. NO. 2).
The total volume of the reaction system was 20 μL:10 μL of 2× One Step TB Green RT-PCR Buffer 4, 1.2 μL of TaKaRa Ex Taq HS Mix, 0.4 μL of PrimeScript PLUS RTase Mix, 0.8 μL each of RBD-qF1 and RBD-qR1, 0.4 μL of ROX Reference Dye (50×), 2 μL of viral RNA, and 4.4 μL of RNase Free dH2O. The reaction parameters were as follows: reverse transcription at 42° C. for 5 min, pre-denaturation at 95° C. for 10 s, PCR for 40 cycles including denaturation at 95° C. for 10 s and annealing and extension at 60° C. for 30 s.
3) The inhibition rates of the drug at the concentrations were calculated. Inhibition rate (%)=1−viral RNA copies in experimental group/viral RNA copies in drug-free group×100%. At the same time, the median effective concentration (EC50) and therapeutic index (TI) of the drug were calculated, therapeutic index (TI)=concentration cytotoxicity 50% (CC50)/median effective concentration (EC50).

in vitro = conditions: human
[1] = tested on: novel coronavirus (COVID-19) pneumonia; assay: Clinical trial in patients with novel coronavirus (COVID-19) pneumonia; conditions: for Clinical advantage versus control (nucleic acid clearance rate, course of clearance, cure rate, course of cure): compared with the conventional treatment (Kaletra control)
AIDS = conditions: as an anti-AIDS drug; cited from earlier work
novel coronaviruses = assay: in vitro antiviral activity in MRC-5 cells infected with the novel coronaviruses; type: cell-based; conditions: MRC5
Text: The inventors have determined the in vitro antiviral activity of Compound 1 in MRC-5 cells infected with the novel coronaviruses.

[2] = Severe acute respiratory syndrome coronavirus 2, Huh 7 cells
[3] = individual patients, 10 per group, Azvudine 5 mg daily oral, Kaletra + arbidol + interferon control

Row | Compound | SI (2019-nCoV (COVID-19)) | inhibition at 0.1 µM (2019-nCoV (COVID-19); Severe acute respiratory syndrome coronavirus 2, 0.1 uM, Huh 7 cells, MOI 0.005, 48 h after infection, read-out: Virus Inhibition Rate (%)) | inhibition at 0.4 µM (2019-nCoV (COVID-19); Severe acute respiratory syndrome coronavirus 2, 0.4 uM, Huh 7 cells, MOI 0.005, 48 h after infection, read-out: Virus Inhibition Rate (%)) | inhibition at 1.6 µM (2019-nCoV (COVID-19); Severe acute respiratory syndrome coronavirus 2, 1.6 uM, Huh 7 cells, MOI 0.005, 48 h after infection, read-out: Virus Inhibition Rate (%)) | inhibition at 6.4 µM (2019-nCoV (COVID-19); Severe acute respiratory syndrome coronavirus 2, 6.4 uM, Huh 7 cells, MOI 0.005, 48 h after infection, read-out: Virus Inhibition Rate (%)) | inhibition at 25.6 µM (2019-nCoV (COVID-19); Severe acute respiratory syndrome coronavirus 2, 25.6 uM, Huh 7 cells, MOI 0.005, 48 h after infection, read-out: Virus Inhibition Rate (%)) | inhibition at 102.4 µM (2019-nCoV (COVID-19); Severe acute respiratory syndrome coronavirus 2, 102.4 uM, Huh 7 cells, MOI 0.005, 48 h after infection, read-out: Virus Inhibition Rate (%)) | EC50 (2019-nCoV (COVID-19); [2]) | CC50 (in vitro) | Clinical advantage versus control (nucleic acid clearance rate, course of clearance, cure rate, course of cure) [1] | Clinical advantage versus control (nucleic acid clearance rate, course of clearance, cure rate, course of cure) ([1]; listed as compound of formula (1)) | Drug-related toxic and side effects during the treatment ([1]; human, in vivo) | From inclusion confirmed by nucleic acid test to clearance [1, 3] | From inclusion confirmed by nucleic acid test to discharge [1, 3] | Patients discharged within 8 days ([1]; of 10 patients in the group) | Patients turned negative by the nucleic acid test ([1]; of 10 patients in the group) | Time to turn negative after start of treatment ([1]; one patient who had failed supportive treatment with Kaletra) | Safety in phase II clinical trials (AIDS) | EC50 (novel coronaviruses)
1 | CC(C)OC(=O)[C@H](C)NP(=O)(OCC1(N=[N+]=[N-])OC(n2ccc(N)nc2=O)C(F)C1O)Oc1ccccc1 (stereo partly shown) [CL-236] | 20.7 | 9.38% | 18.8% | 37.5% | 65.6% | 75% | 81.2% | 3.2 µM | 66.2 µM | – | – | – | – | – | – | – | – | – | –
2 | CCC(CC)COC(=O)[C@H](C)N[P@](=O)(OC[C@H]1O[C@@](C#N)(c2ccc3c(N)ncnn23)[C@H](O)[C@@H]1O)Oc1ccccc1 [Remdesivir, reference compound] | >30.0 | – | – | – | – | – | – | 1.5 µM | > 45 µM | – | – | – | – | – | – | – | – | – | –
3 | [N-]=[N+]=NC1(CO)OC(n2ccc(N)nc2=O)C(F)C1O (stereo not shown) [Compound 1, Azvudine] | – | – | – | – | – | – | – | – | – | significant clinical therapeutic advantages | obvious advantages | no drug-related toxic and side effects were found | Clearance: day 4; also recorded: Clearance: day 2; also recorded: one week; also recorded: Clearance: day 3 | Discharge: day 7; also recorded: Discharge: day 6; also recorded: Discharge: day 8; also recorded: Discharge: day 5 | seven | 10 | three days | good safety | 25 µM
